Columns and labels:
MDA-MB-468 cells [1] = assay: Quantification of RNA from MDA-MB-468 cells isolated after 72 h sample storage; type: cell-based, human; details: 72 hours at room temperature, GCK DNA as reference, two donors
Protocol: MDA-MB-468 cells were spiked into blood samples obtained from two healthy individuals at 14.4×10^6 cells/ml. From each donor four samples were prepared. […] Aliquots from these samples were processed immediately after set up, other aliquots were processed after storage at room temperature for 72 hours. MDA-MB-468 cells were isolated from blood by capturing with BreastSelectBeads from Adnagen Cat. No.: T1-508 with 1,000 μl aliquots of sample material according to the protocol recommended by the manufacturer.
The bead captured purified cells were resuspended in 1,000 μl PBS. With 200 μl aliquots RNA was isolated using the MagNA Pure LC DNA Isolation Kit—Large volume Cat No 03310515001 using the Program “DNA LV Blood_20_200” and an elution volume of 100 μl.
The RNA was transcribed into cDNA using Transcriptor First Strand cDNA Synthesis Kit Cat. No: 04897030001 in reactions of 70 μl volume, each reaction containing 12.5 μl of isolated nucleic acid. PCR was peformed with the with the LightCycler 480 Probes Master in a LightCycler 480 instrument in 20 μl reactions containing 5 μl of the cDNA samples. […]
To quantify the changes in expression level of the RNA target tested, the relative quantification method of Livak and Schmittgen was used (Livak K. J. and Schmittgen T. D., Methods 2001, 25(4) 402-408). […]

MDA-MB-468 cells [2] = assay: Isolation of viable cells after sample storage for 48 hours, Trypan blue exclusion; type: cell-based, human; details: 48 hours at room temperature, two donors
Protocol: MDA-MB-468 cells were spiked into blood samples obtained from healthy individuals to result in a final concentration of 300,000 spiked cells/ml blood. The samples were processed either immediately or after storage at room temperature for 48 hours.
Immediately after sample set up and 48 hours later nucleated cells were enriched by erythrocyte lysis. […] The cells were sedimented by centrifugation at 200×g for 15 min.
From these samples the MDA-MB-468 cells were isolated using CD326 (EpCAM) Microparticles from Miltenyi (Cat No 130-061-101), MS columns and the MACS separator system (Milteny Cat. Nos. 130-042-201, 130-042-102) making use of the protocol recommended by the manufacturer.
The enriched cells were suspended in 300 μl of RPMI medium.
The viability of the cells was tested with the Trypan blue exclusion method. 10 μl of each sample was mixed with 10 μl of Trypan blue (Sigma-Aldrich T8154). The number of MDA-MB-468 cells excluding the dye was counted in a Neubauer chamber. The yield of viable cells was calculated using the cell number spiked into the blood samples as 100%.

MDA-MB-468 cells [3] = details: blood stored 48 hours at room temperature; cell index for 101 hours
Protocol: MDA-MB-468 cells treated and isolated as described in Example 6 were seeded into the wells of an E-Plate 96-well device (Roche Applied Science, Cat. No. 06472451001, Roche Diagnostics GmbH Mannheim, Germany) for the Real-Time Cell Analyzer (RTCA) MP (xCELLigence system). 50 μl aliquots of cells were seeded into wells containing 50 μl of RPMI medium. Duplicates were used for analysis. The E-Plate was incubated over night at 37° C. in an incubator to allow attachment of MDA-MB-468 cells to the bottom of the E-Plate. In order to remove contaminating blood derived cells the medium was removed and cells attached to the culture plate were washed 3 times with PBS. 150 μl of fresh RPMI medium was added per well and the E-Plate transferred to the Real-Time Cell Analyzer. Cell index was measured once per hour for 101 hours.

MDA-MB-468 cells [4] = assay: Preservation of cellular proteins: anti-CK5/8 immunostaining of MDA-MB-468 cells spiked into blood; type: cell-based, human; details: EDTA blood, 48 hours at room temperature; Sivelestat 10 μg/ml, Pefabloc SC 1 mM, SkQ1 100 nM, Mito Q 100 nM, glutathione 3 mM; versus EDTA without additive
Protocol: Preservation of Cellular Proteins Suspended cells of MDA-MB-468, a human breast cancer cell line were spiked into blood samples obtained from healthy individuals to result in 100,000 spiked cells per ml blood. The samples were processed either immediately or after storage at room temperature for 48 hours.
Nucleated cells were enriched by erythrocytes lysis. […] After centrifugation at 200×g for 15 min, the supernatant was removed and the pellet was resuspended in 250 μl of lysis buffer. […] The cells were sedimented by centrifugation at 200×g for 15 min.
For each sample a volume of 50 μl of the cell suspension was spotted on a glass slide and air-dried. The slides were fixed in ice cold acetone for 10 min, washed with PBS twice and immersed in labeling mixture containing anti-cytokeratine K5/K8-FITC labeled antibody diluted 1:50 in PBS (cytokeratine=CK). After an incubation for 30 min in the dark the supernatant was removed. DAPI-containing mounting medium was added, the spots covered with cover slips and after a further incubation for 20 min analyzed on a Zeiss Axio Observer Microscope. The total number of nucleated cells and the CK 5/8 positive cells were analyzed with the Assay Builder Software from Zeiss.
MDA-MB-468 cells were spiked into blood samples obtained from healthy individuals to result in a concentration of 100,000 spiked cells/ml blood. The samples were processed either immediately or after storage at room temperature for 48 hours. […] Sample 3 was additionally supplemented with the mitochondria targeted antioxidant SS-31 (1 μM), sample 4 with glutathione (0.75 mM). Nucleated cells were enriched by erythrocytes lysis and processed as described in Example 1.

Row | Structure (SMILES) | percentage of MDA-MB-468 cells detected by immunostaining with Anti-CK5/8 (FIG. 1) (MDA-MB-468 cells [4]) | other results
1 | O=C(O)CN(CCN(CC(=O)O)CC(=O)O)CC(=O)O [EDTA] | – | change of RNA levels of isolated MDA-MB-468 cells (FIG. 4) (MDA-MB-468 cells [1]): strong decline in RNA levels; cell viability after storage, in words (MDA-MB-468 cells [2]): negatively affected; cell growth in culture of cells isolated from stored blood (FIG. 5) (MDA-MB-468 cells [3]): not culturable anymore
2 | COC1=C(OC)C(=O)C(CCCCCCCCCC[P+](c2ccccc2)(c2ccccc2)c2ccccc2)=C(C)C1=O [MitoQ, (10-(2,5-dihydroxy-3,4-dimethoxy-6-methylphenyl)decyl) triphenylphosphonium and (10-(4,5-dimethoxy-2-methyl-3,6-dioxocyclohexa-1,4-dienyl)decyl) triphenylphosphonium] | Particular positive effects | –
3 | Cl.NCCc1ccc(S(=O)(=O)F)cc1 [Pefabloc SC, 4-(2-aminoethyl) benzenesulfonyl fluoride hydrochloride] | higher signals than the control sample without additive | –
4 | CC(C)(C)C(=O)Oc1ccc(S(=O)(=O)Nc2ccccc2C(=O)NCC(=O)O)cc1 [Sivelestat] | higher signals than the control sample without additive | –
5 | CC1=C(C)C(=O)C(CCCCCCCCCC[P+](c2ccccc2)(c2ccccc2)c2ccccc2)=CC1=O [SkQ1, 10-(6′-plastoquinonyl) decyltriphenylphosphonium] | Particular positive effects | –
6 | N[C@@H](CCC(=O)N[C@@H](CS)C(=O)NCC(=O)O)C(=O)O [glutathione] | further positive effect | –

Source: patent US20210015092A1, “STABILIZATION OF WHOLE BLOOD AT ROOM TEMPERATURE” (Roche Diagnostics Operations, Inc., priority 2014, published 2021)
